# From PubChem BioAssay (NCI)
#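 Dose response: 5 concentrations. Exposure: 48 h. Format: 96-well plates. Endpoint: linear interpolation; highest concentration if not reached. TGI: concentration producing complete growth inhibition.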
# Key:
# Assay in all cases: NCI-60 cell line screen, 48 h
# [1] = tested on: CAKI-1 renal
# [2] = tested on: MDA-MB-435
# [3] = tested on: IGROV1 ovarian
# [4] = tested on: HT29 colon
# [5] = tested on: UO-31 renal
# [6] = tested on: NCI-H460 lung
# [7] = tested on: T-47D breast
# [8] = tested on: RXF 393 renal
# [9] = tested on: U251 CNS
# [10] = tested on: CCRF-CEM leukemia
# [11] = tested on: M14 melanoma
# [12] = tested on: DU-145 prostate
# [13] = tested on: OVCAR-4 ovarian
# [14] = tested on: OVCAR-5 ovarian
# [15] = tested on: RPMI-8226 leukemia
# [16] = tested on: HCT-15 colon
# [17] = tested on: SF-295 CNS
# [18] = tested on: NCI/ADR-RES ovarian
# [19] = tested on: MDA-N
# [20] = tested on: PC-3 prostate
# [21] = tested on: LOX IMVI melanoma
# [22] = tested on: TK-10 renal
# [23] = tested on: NCI-H226 lung
# [24] = tested on: MDA-MB-231 breast
# [25] = tested on: HCT-116 colon
# [26] = tested on: MALME-3M melanoma
# [27] = tested on: K-562 leukemia
# [28] = tested on: HCC-2998 colon
# [29] = tested on: UACC-62 melanoma
# [30] = tested on: KM12 colon
# [31] = tested on: SK-MEL-5 melanoma
# [32] = tested on: SW-620 colon
# [33] = tested on: EKVX NSCLC
# [34] = tested on: SF-268 CNS
# [35] = tested on: A549 NSCLC
# [36] = tested on: ACHN renal
# [37] = tested on: SF-539 CNS
# [38] = tested on: SK-MEL-28 melanoma
# [39] = tested on: BT-549 breast
# [40] = tested on: SK-OV-3 ovarian
# [41] = tested on: HOP-62 NSCLC
# [42] = tested on: HS 578T breast
# [43] = tested on: A498 renal
# [44] = tested on: SNB-75 CNS
# [45] = tested on: SR leukemia
# [46] = tested on: NCI-H522 lung
# [47] = tested on: MOLT-4 leukemia
# [48] = tested on: NCI-H23 lung
# [49] = tested on: SNB-19 CNS
# [50] = tested on: COLO 205 colon
# [51] = tested on: SK-MEL-2 melanoma
# [52] = tested on: MCF7 breast
# [53] = tested on: SN12C renal
# [54] = tested on: UACC-257 melanoma
# [55] = tested on: HOP-92 NSCLC
# [56] = tested on: OVCAR-3 ovarian
# [57] = tested on: OVCAR-8 ovarian
# [58] = tested on: HL-60(TB) leukemia
# [59] = tested on: 786-0 renal
structure (smiles),measurement,setting,value
O=C1C=CC(=O)c2c1ccc1c3ccccc3n(-c3ccccc3[N+](=O)[O-])c21,TGI,[1],3.64 µM
same,TGI,[2],5.6 µM
same,TGI,[3],4.9 µM
same,TGI,[4],> 74.1 µM
same,TGI,[5],2.87 µM
same,TGI,[6],> 100 µM
same,TGI,[7],5.19 µM
same,TGI,[8],3.24 µM
same,TGI,[9],21.2 µM
same,TGI,[10],> 31.6 µM
same,TGI,[11],4.58 µM
same,TGI,[12],18.9 µM
same,TGI,[13],10.2 µM
same,TGI,[14],37.5 µM
same,TGI,[15],> 24.1 µM
same,TGI,[16],9 µM
same,TGI,[17],> 56.7 µM
same,TGI,[18],20.5 µM
same,TGI,[19],> 21.6 µM
same,TGI,[20],12.4 µM
same,TGI,[21],4.76 µM
same,TGI,[22],5.89 µM
same,TGI,[23],50.3 µM
same,TGI,[24],7.88 µM
same,TGI,[25],> 25.3 µM
same,TGI,[26],5.63 µM
same,TGI,[27],> 100 µM
same,TGI,[28],13.2 µM
same,TGI,[29],10.2 µM
same,TGI,[30],35.8 µM
same,TGI,[31],21.2 µM
same,TGI,[32],> 100 µM
same,TGI,[33],23.7 µM
same,TGI,[34],6.82 µM
same,TGI,[35],> 64.8 µM
same,TGI,[36],3.46 µM
same,TGI,[37],> 65.2 µM
same,TGI,[38],50.8 µM
same,TGI,[39],14.6 µM
same,TGI,[40],33 µM
same,TGI,[41],> 53.7 µM
same,TGI,[42],36.4 µM
same,TGI,[43],35.6 µM
same,TGI,[44],35.7 µM
same,TGI,[45],> 100 µM
same,TGI,[46],2.87 µM
same,TGI,[47],> 100 µM
same,TGI,[48],19.4 µM
same,TGI,[49],29.3 µM
same,TGI,[50],4.35 µM
same,TGI,[51],31.6 µM
same,TGI,[52],20 µM
same,TGI,[53],> 71.5 µM
same,TGI,[54],13.1 µM
COC1OC(COC(=O)c2cc(O)c(O)c(O)c2)C(OC(=O)c2cc(O)c(O)c(O)c2)C(OC(=O)c2cc(O)c(O)c(O)c2)C1OC(=O)c1cc(O)c(O)c(O)c1 (stereo unspecified),TGI,[1],> 100 µM
same,TGI,[2],25.7 µM
same,TGI,[3],> 100 µM
same,TGI,[4],> 100 µM
same,TGI,[5],> 100 µM
same,TGI,[6],> 100 µM
same,TGI,[7],> 100 µM
same,TGI,[8],> 100 µM
same,TGI,[9],> 100 µM
same,TGI,[10],42.5 µM
same,TGI,[11],26.8 µM
same,TGI,[12],> 100 µM
same,TGI,[13],> 100 µM
same,TGI,[14],> 100 µM
same,TGI,[15],97.3 µM
same,TGI,[16],> 100 µM
same,TGI,[17],> 100 µM
same,TGI,[18],98.4 µM
same,TGI,[19],87.6 µM
same,TGI,[20],> 100 µM
same,TGI,[21],> 100 µM
same,TGI,[22],> 100 µM
same,TGI,[23],66.8 µM
same,TGI,[24],> 100 µM
same,TGI,[25],> 100 µM
same,TGI,[26],> 100 µM
same,TGI,[27],49.7 µM
same,TGI,[28],> 100 µM
same,TGI,[29],> 100 µM
same,TGI,[30],> 100 µM
same,TGI,[31],> 100 µM
same,TGI,[32],> 100 µM
same,TGI,[55],> 100 µM
same,TGI,[33],> 100 µM
same,TGI,[34],> 100 µM
same,TGI,[35],> 100 µM
same,TGI,[36],> 100 µM
same,TGI,[56],77.7 µM
same,TGI,[37],37.1 µM
same,TGI,[38],> 100 µM
same,TGI,[40],54 µM
same,TGI,[57],> 100 µM
same,TGI,[41],> 100 µM
same,TGI,[42],> 100 µM
same,TGI,[43],62.6 µM
same,TGI,[58],50.1 µM
same,TGI,[44],> 100 µM
same,TGI,[45],36 µM
same,TGI,[46],50.4 µM
same,TGI,[47],70.6 µM
same,TGI,[59],26.4 µM
same,TGI,[48],> 100 µM
same,TGI,[49],> 100 µM
same,TGI,[50],> 100 µM
same,TGI,[51],> 100 µM
same,TGI,[52],> 100 µM
same,TGI,[53],> 100 µM
same,TGI,[54],> 100 µM
CC1C(OC2O[C@@H]3O[C@@]4(C)CC[C@H]5[C@H](C)CC[C@@H](C2C)[C@@]35O4)O[C@@H]2O[C@@]3(C)CC[C@H]4[C@H](C)CC[C@@H]1[C@@]24O3 (stereo partly specified),TGI,[1],> 50 µM
same,TGI,[2],> 50 µM
same,TGI,[4],> 50 µM
same,TGI,[6],> 50 µM
same,TGI,[7],> 50 µM
same,TGI,[9],> 50 µM
same,TGI,[10],> 50 µM
same,TGI,[11],> 50 µM
same,TGI,[12],> 50 µM
same,TGI,[13],> 50 µM
same,TGI,[14],> 50 µM
same,TGI,[15],> 50 µM
same,TGI,[16],> 50 µM
same,TGI,[17],> 50 µM
same,TGI,[19],> 50 µM
same,TGI,[20],> 50 µM
same,TGI,[21],> 50 µM
same,TGI,[22],> 50 µM
same,TGI,[23],> 50 µM
same,TGI,[24],> 50 µM
same,TGI,[25],> 50 µM
same,TGI,[26],> 50 µM
same,TGI,[27],> 50 µM
same,TGI,[28],> 50 µM
same,TGI,[29],> 50 µM
same,TGI,[30],> 50 µM
same,TGI,[31],> 50 µM
same,TGI,[32],> 50 µM
same,TGI,[33],> 50 µM
same,TGI,[34],> 50 µM
same,TGI,[35],> 50 µM
same,TGI,[36],> 50 µM
same,TGI,[56],> 50 µM
same,TGI,[37],> 50 µM
same,TGI,[38],> 50 µM
same,TGI,[39],> 50 µM
same,TGI,[40],> 50 µM
same,TGI,[57],> 50 µM
same,TGI,[41],> 50 µM
same,TGI,[42],> 50 µM
same,TGI,[43],> 50 µM
same,TGI,[58],> 50 µM
same,TGI,[44],> 50 µM
same,TGI,[45],> 50 µM
same,TGI,[46],> 50 µM
same,TGI,[47],> 50 µM
same,TGI,[59],> 50 µM
same,TGI,[48],> 50 µM
same,TGI,[49],> 50 µM
same,TGI,[50],> 50 µM
same,TGI,[51],> 50 µM
same,TGI,[52],> 50 µM
same,TGI,[53],> 50 µM
same,TGI,[54],> 50 µM
